According to US10144742B2 (Millennium Pharmaceuticals, Inc., priority 2014, dated 2018):

Experiments:
[1] = tested on: PC3 cells; experiment: PC3 growth inhibition (Cell-titer glo, 72 hours); assay type: cell-based; settings: Homo sapiens, PC-3; compound concentration 1.667 μM; PC3 cells, 72 hours, Cell-titer glo; read-out: Percent Inhibition (PC3 growth inhibition)
How it was run: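 PC3 cells in RPMI1640 seeded overnight at 37 °C, 5% CO2, then exposed to compound diluted in AIM serum-free medium for 72 h. Viability by CellTiter-Glo luminescence vs DMSO controls; single-concentration % remaining viability (1 μM or 1.667 μM), or GI50/LD50 from curves.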

[2] = biological target: hNAMPT protein (Homo sapiens (Human), UniProt P43490); experiment: NAMPT enzyme assay (TR-FRET/HTRF, BodiPY ligand, anti 6His-Tb); assay type: binding; settings: for inhibition at 1 µM: NAMPT inhibition at compound concentration 1 μM, read-out: Percent Inhibition; for IC50: NAMPT inhibition, IC50 range class, read-out: IC50
hNAMPT protein, sequence (P43490 whole entry): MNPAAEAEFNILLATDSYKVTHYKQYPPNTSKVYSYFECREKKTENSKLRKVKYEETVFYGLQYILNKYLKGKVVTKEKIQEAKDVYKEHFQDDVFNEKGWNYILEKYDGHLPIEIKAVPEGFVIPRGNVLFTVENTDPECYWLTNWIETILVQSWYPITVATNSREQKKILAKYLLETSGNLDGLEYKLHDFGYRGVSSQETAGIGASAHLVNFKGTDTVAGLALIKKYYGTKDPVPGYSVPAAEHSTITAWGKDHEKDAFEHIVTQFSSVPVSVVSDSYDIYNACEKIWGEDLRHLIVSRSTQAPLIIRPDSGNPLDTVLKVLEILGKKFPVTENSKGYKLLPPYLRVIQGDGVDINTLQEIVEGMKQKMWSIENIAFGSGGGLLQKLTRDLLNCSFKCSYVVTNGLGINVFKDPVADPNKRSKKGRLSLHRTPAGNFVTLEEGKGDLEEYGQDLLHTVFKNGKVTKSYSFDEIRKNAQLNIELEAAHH
How it was run: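 TR-FRET binding assay in which His-tagged human NAMPT with anti-6His-Tb is displaced by compound from a BodiPY ligand, incubated 1 h at rt in the dark. Excitation was at 320 nm, with the 520/486 nm emission ratio read. IC50 was fitted from inhibition relative to DMSO controls.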

Compound	inhibition at 1.667 µM [1] [%]	inhibition at 1 µM [2] [%]	IC50 [2] [nM]
Cc1ccc(C)c(-c2nc3cc(C(=O)NCCCc4ncc[nH]4)ccc3nc2-c2ccc(F)cc2)c1 [Compound I-450, 3-(2,5-dimethylphenyl)-2-(4-fluorophenyl)-N-[3-(1H-imidazol-2-yl)propyl]quinoxaline-6-carboxamide]	1	93	< 100
O=C(NCCCc1ncc[nH]1)c1ccc2nc(-c3ccc(F)cc3)c(-c3cc(C(F)(F)F)ccc3F)nc2c1 [Compound I-451, 2-(4-fluorophenyl)-3-[2-fluoro-5-(trifluoromethyl)phenyl]-N-[3-(1H-imidazol-2-yl)propyl]quinoxaline-6-carboxamide]	2	97	< 100
CC(C)Oc1nc2ccc(C(=O)NCc3ccc4nccn4c3)cc2nc1-c1ccc(F)cc1 [Compound I-452, 3-(4-Fluorophenyl)-N-(imidazo[1,2-a]pyridin-6-ylmethyl)-2-isopropoxyquinoxaline-6-carboxamide]	3	75	100 to 500
O=C(NCCCc1ncc[nH]1)c1ccc2nc(-n3cnc4ccccc43)c(-c3ccc(F)cc3)nc2c1 [Compound I-453, 2-(1H-benzimidazol-1-yl)-3-(4-fluorophenyl)-N-[3-(1H-imidazol-2-yl)propyl]quinoxaline-6-carboxamide]	3	88	100 to 500
O=C(NCCCc1ncc[nH]1)c1ccc2nc(OCc3ccccc3Cl)c(-c3ccc(F)cc3)nc2c1 [Compound I-454, 2-[(2-chlorobenzyl)oxy]-3-(4-fluorophenyl)-N-[3-(1H-imidazol-2-yl)propyl]quinoxaline-6-carboxamide]	2	95	< 100
O=C(NCCCc1ncc[nH]1)c1ccc2nc(-c3ccc(F)cc3)c(-c3ccc(Cl)cc3F)nc2c1 [Compound I-455, 3-(4-chloro-2-fluorophenyl)-2-(4-fluorophenyl)-N-[3-(1H-imidazol-2-yl)propyl]quinoxaline-6-carboxamide]	3	80	100 to 500
CN(C)C1CCC(Oc2nc3ccc(C(=O)NCCCc4ncc[nH]4)cc3nc2-c2ccc(F)cc2)CC1 (stereo not drawn) [Compound I-456, 2-{[4-(dimethylamino)cyclohexyl]oxy}-3-(4-fluorophenyl)-N-[3-(1H-imidazol-2-yl)propyl]quinoxaline-6-carboxamide]	2	> 99	< 100
COC1CCN(c2nc3ccc(C(=O)NCCCc4ncc[nH]4)cc3nc2-c2ccc(F)cc2)C1 (stereo not drawn) [Compound I-457, 3-(4-fluorophenyl)-N-[3-(1H-imidazol-2-yl)propyl]-2-(3-methoxypyrrolidin-1-yl)quinoxaline-6-carboxamide]	2	98	< 100
N#Cc1cccc(-c2nc3cc(C(=O)NCCCc4ncc[nH]4)ccc3nc2-c2ccc(F)cc2)c1 [Compound I-458, 3-(3-cyanophenyl)-2-(4-fluorophenyl)-N-[3-(1H-imidazol-2-yl)propyl]quinoxaline-6-carboxamide]	2	81	100 to 500
O=C(NCCCc1ncc[nH]1)c1ccc2nc(OCc3ncc[nH]3)c(-c3ccc(F)cc3)nc2c1 [Compound I-459, 3-(4-fluorophenyl)-2-(1H-imidazol-2-ylmethoxy)-N-[3-(1H-imidazol-2-yl)propyl]quinoxaline-6-carboxamide]	> 99	47	500 to 1000
Cn1ccc(COc2nc3ccc(C(=O)NCCCc4ncc[nH]4)cc3nc2-c2ccc(F)cc2)n1 [Compound I-460, 3-(4-fluorophenyl)-N-[3-(1H-imidazol-2-yl)propyl]-2-[(1-methyl-1H-pyrazol-3-yl)methoxy]quinoxaline-6-carboxamide]	2	99	< 100
O=C(NCCCc1ncc[nH]1)c1ccc2nc(-c3ccc(F)cc3)c(-c3ccc4c(c3)OCO4)nc2c1 [Compound I-461, 3-(1,3-benzodioxol-5-yl)-2-(4-fluorophenyl)-N-[3-(1H-imidazol-2-yl)propyl]quinoxaline-6-carboxamide]	2	86	100 to 500
C#CCOc1nc2ccc(C(=O)NCCCc3ncc[nH]3)cc2nc1-c1ccc(F)cc1 [Compound I-462, 3-(4-fluorophenyl)-N-[3-(1H-imidazol-2-yl)propyl]-2-(prop-2-yn-1-yloxy)quinoxaline-6-carboxamide]	2	95	< 100
O=C(NCCCc1ncc[nH]1)c1ccc2nc(-c3ccc(F)cc3)c(-c3cccc(Cl)c3)nc2c1 [Compound I-463, 3-(3-chlorophenyl)-2-(4-fluorophenyl)-N-[3-(1H-imidazol-2-yl)propyl]quinoxaline-6-carboxamide]	3	97	< 100
O=C(NCc1nc2cnccc2[nH]1)c1ccc2nc(-c3ccc(F)cc3)c(-c3ccc(F)cc3)nc2c1 [Compound I-464, 2,3-bis(4-fluorophenyl)-N-(1H-imidazo[4,5-c]pyridin-2-ylmethyl)quinoxaline-6-carboxamide]	0	> 99	< 100
O=C(NCCCc1ncc[nH]1)c1ccc2nc(N3CCCC3)c(-c3ccc(F)cc3)nc2c1 [Compound I-465, 3-(4-fluorophenyl)-N-[3-(1H-imidazol-2-yl)propyl]-2-(pyrrolidin-1-yl)quinoxaline-6-carboxamide]	2	98	< 100
COc1cc(-c2nc3cc(C(=O)NCCCc4ncc[nH]4)ccc3nc2-c2ccc(F)cc2)c(F)cn1 [Compound I-466, 3-(5-fluoro-2-methoxy-4-pyridyl)-2-(4-fluorophenyl)-N-[3-(1H-imidazol-2-yl)propyl]quinoxaline-6-carboxamide]	2	95	< 100
COc1ccc(C)c(-c2nc3cc(C(=O)NCCCc4ncc[nH]4)ccc3nc2-c2ccc(F)cc2)c1 [Compound I-467, 2-(4-fluorophenyl)-N-[3-(1H-imidazol-2-yl)propyl]-3-(5-methoxy-2-methylphenyl)quinoxaline-6-carboxamide]	2	94	< 100
O=C(NCCCc1ncc[nH]1)c1ccc2nc(O[C@H]3CCOC3)c(-c3ccc(F)cc3)nc2c1 [Compound I-468, 3-(4-fluorophenyl)-N-[3-(1H-imidazol-2-yl)propyl]-2-[(3S)-tetrahydrofuran-3-yloxy]quinoxaline-6-carboxamide]	2	99	< 100
O=C(NCCCc1ncc[nH]1)c1ccc2nc(OCc3nccs3)c(-c3ccc(F)cc3)nc2c1 [Compound I-469, 3-(4-fluorophenyl)-N-[3-(1H-imidazol-2-yl)propyl]-2-(1,3-thiazol-2-ylmethoxy)quinoxaline-6-carboxamide]	2	98	< 100
COc1ccc(-c2nc3cc(C(=O)NCCCc4ncc[nH]4)ccc3nc2-c2ccc(F)cc2)cc1F [Compound I-470, 3-(3-fluoro-4-methoxyphenyl)-2-(4-fluorophenyl)-N-[3-(1H-imidazol-2-yl)propyl]quinoxaline-6-carboxamide]	2	81	100 to 500
Cc1cc(-c2nc3cc(C(=O)NCCCc4ncc[nH]4)ccc3nc2-c2ccc(F)cc2)ccc1F [Compound I-471, 3-(4-fluoro-3-methylphenyl)-2-(4-fluorophenyl)-N-[3-(1H-imidazol-2-yl)propyl]quinoxaline-6-carboxamide]	2	> 99	< 100
Cc1ccc(C#N)cc1-c1nc2cc(C(=O)NCCCc3ncc[nH]3)ccc2nc1-c1ccc(F)cc1 [Compound I-472, 3-(5-cyano-2-methylphenyl)-2-(4-fluorophenyl)-N-[3-(1H-imidazol-2-yl)propyl]quinoxaline-6-carboxamide]	2	98	< 100
Cc1ccc(-c2nc3cc(C(=O)NCCCc4ncc[nH]4)ccc3nc2-c2ccc(F)cc2)s1 [Compound I-473, 2-(4-fluorophenyl)-N-[3-(1H-imidazol-2-yl)propyl]-3-(5-methyl-2-thienyl)quinoxaline-6-carboxamide]	3	85	100 to 500
O=C(NCCCc1ncc[nH]1)c1ccc2nc(-c3ccc(F)cc3)c(-c3ccc(F)c(F)c3)nc2c1 [Compound I-474, 3-(3,4-difluorophenyl)-2-(4-fluorophenyl)-N-[3-(1H-imidazol-2-yl)propyl]quinoxaline-6-carboxamide]	3	95	100 to 500
Cc1nn(C)cc1-c1nc2cc(C(=O)NCCCc3ncc[nH]3)ccc2nc1-c1ccc(F)cc1 [Compound I-475, 3-(1,3-dimethyl-1H-pyrazol-4-yl)-2-(4-fluorophenyl)-N-[3-(1H-imidazol-2-yl)propyl]quinoxaline-6-carboxamide]	3	77	100 to 500
O=C(NCCCc1ncc[nH]1)c1ccc2nc(Cc3ccc(Cl)cc3)c(-c3ccc(F)cc3)nc2c1 [Compound I-476]	3	88	100 to 500
